{
  "source": "ChEMBL document CHEMBL3853265",
  "about": "(Medchemcomm, 2016)",
  "key": {"P-gp": {"system": "P-gp", "test": "Substrate activity at p-gp (unknown origin) assessed as efflux ratio of permeability", "assay_type": "ADME", "conditions": "human, not told"}, "Cytochrome P450 3A4": {"biological_target": "Cytochrome P450 3A4 (Homo sapiens, UniProt P08684)", "sequence (P08684 whole entry)": "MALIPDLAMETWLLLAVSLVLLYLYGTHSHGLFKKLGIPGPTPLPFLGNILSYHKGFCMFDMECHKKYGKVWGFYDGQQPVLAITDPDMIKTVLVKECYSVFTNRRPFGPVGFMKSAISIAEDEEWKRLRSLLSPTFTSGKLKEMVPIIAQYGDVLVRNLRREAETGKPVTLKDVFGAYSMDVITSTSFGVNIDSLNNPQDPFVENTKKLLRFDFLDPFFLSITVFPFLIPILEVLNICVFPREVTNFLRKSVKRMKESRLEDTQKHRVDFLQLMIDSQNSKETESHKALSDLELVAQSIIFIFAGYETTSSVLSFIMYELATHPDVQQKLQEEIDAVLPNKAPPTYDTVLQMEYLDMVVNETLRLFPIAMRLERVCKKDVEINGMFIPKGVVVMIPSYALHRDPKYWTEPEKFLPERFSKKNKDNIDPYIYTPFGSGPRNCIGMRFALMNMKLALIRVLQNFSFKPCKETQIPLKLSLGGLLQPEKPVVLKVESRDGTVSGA", "test": "Inhibition of CYP3A4 (unknown origin)", "assay_type": "ADME"}, "[1]": {"test": "Unbound Cmax in Wistar Han rat at 10 mg/kg, po […] measured on day 14", "assay_type": "ADME, organism-based", "conditions": "in vivo"}, "[2]": {"test": "Toxicity in po dosed dog assessed as drug tolerance administered as single dose", "assay_type": "organism-based, Canis lupus familiaris", "conditions": "in vivo"}, "[3]": {"test": "Drug recovery in bile of bile duct cannulated rat", "assay_type": "ADME", "conditions": "read-out: Drug recovery"}, "[4]": {"test": "Unbound clearance in dog at 0.363 mg/kg, iv and 0.737 mg/kg, po", "assay_type": "ADME, organism-based, Canis lupus familiaris", "conditions": "in vivo"}, "[5]": {"test": "Drug metabolism in human hepatocytes assessed as monooxidation", "assay_type": "ADME, cell-based, Hepatocyte"}, "Cytochrome P450 2D6": {"biological_target": "Cytochrome P450 2D6 (Homo sapiens, UniProt P10635)", "sequence (P10635 whole entry)": "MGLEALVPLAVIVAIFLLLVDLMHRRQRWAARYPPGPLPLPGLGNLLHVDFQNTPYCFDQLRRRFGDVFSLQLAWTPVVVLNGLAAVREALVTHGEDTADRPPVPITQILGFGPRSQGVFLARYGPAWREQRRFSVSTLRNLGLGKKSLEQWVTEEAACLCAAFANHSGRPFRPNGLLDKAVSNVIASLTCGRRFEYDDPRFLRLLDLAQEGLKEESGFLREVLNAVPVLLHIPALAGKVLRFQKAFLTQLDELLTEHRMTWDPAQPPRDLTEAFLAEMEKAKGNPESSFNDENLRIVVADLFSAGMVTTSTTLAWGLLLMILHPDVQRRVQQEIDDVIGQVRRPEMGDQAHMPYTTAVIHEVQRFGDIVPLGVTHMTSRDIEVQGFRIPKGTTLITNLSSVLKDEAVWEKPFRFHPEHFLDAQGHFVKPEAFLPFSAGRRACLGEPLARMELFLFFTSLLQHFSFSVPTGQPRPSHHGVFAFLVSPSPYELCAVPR", "test": "Inhibition of CYP2D6 (unknown origin)", "assay_type": "ADME"}, "Cytochrome P450 1A2": {"biological_target": "T1, Cytochrome P450 1A2 (Homo sapiens, UniProt P05177)", "T1 sequence (P05177 whole entry)": "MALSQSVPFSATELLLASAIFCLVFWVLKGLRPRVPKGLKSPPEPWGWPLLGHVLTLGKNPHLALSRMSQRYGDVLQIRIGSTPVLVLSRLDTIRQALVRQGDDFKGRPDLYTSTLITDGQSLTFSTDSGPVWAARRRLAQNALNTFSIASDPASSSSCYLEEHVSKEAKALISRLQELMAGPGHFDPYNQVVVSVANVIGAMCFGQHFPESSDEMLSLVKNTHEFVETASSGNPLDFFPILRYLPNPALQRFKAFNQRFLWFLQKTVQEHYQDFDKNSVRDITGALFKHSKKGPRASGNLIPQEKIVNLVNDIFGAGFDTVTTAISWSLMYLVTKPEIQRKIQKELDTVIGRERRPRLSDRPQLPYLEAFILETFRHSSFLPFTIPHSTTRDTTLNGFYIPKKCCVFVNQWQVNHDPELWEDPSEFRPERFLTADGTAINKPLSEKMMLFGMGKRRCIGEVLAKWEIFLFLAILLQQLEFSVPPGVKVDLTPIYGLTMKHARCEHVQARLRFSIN", "test": "Inhibition of CYP1A2 (unknown origin)", "assay_type": "ADME"}, "CYP2C9": {"biological_target": "CYP2C9 (Homo sapiens, UniProt P11712)", "sequence (P11712 whole entry)": "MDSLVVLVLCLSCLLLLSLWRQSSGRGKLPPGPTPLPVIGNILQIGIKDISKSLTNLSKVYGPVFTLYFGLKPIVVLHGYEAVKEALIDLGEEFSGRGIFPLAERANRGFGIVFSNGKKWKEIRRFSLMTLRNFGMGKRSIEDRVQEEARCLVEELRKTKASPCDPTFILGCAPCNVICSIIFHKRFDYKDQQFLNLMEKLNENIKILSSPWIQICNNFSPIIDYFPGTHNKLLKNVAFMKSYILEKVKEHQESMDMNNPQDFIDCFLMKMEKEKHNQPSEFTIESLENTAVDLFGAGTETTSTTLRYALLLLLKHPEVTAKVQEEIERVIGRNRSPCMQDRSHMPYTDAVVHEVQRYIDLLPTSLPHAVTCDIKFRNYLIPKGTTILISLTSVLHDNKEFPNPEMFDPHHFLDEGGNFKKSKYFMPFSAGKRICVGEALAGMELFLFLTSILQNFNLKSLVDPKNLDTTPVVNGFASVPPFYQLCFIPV", "test": "Inhibition of CYP2C9 (unknown origin) at 3 uM relative to control", "assay_type": "ADME"}, "[6]": {"test": "Toxicity in dog assessed as appearance of red mucous membranes of the gum at 30 mg/kg, po administered as single dose", "assay_type": "organism-based, Canis lupus familiaris", "conditions": "in vivo"}, "[7]": {"test": "Drug metabolism in human hepatocytes assessed as monooxidation and glucuronidation", "assay_type": "ADME, cell-based, Hepatocyte"}, "BCRP (ABCG2)": {"biological_target": "T2, BCRP (ABCG2) (Homo sapiens, UniProt Q9UNQ0)", "T2 sequence (Q9UNQ0 whole entry)": "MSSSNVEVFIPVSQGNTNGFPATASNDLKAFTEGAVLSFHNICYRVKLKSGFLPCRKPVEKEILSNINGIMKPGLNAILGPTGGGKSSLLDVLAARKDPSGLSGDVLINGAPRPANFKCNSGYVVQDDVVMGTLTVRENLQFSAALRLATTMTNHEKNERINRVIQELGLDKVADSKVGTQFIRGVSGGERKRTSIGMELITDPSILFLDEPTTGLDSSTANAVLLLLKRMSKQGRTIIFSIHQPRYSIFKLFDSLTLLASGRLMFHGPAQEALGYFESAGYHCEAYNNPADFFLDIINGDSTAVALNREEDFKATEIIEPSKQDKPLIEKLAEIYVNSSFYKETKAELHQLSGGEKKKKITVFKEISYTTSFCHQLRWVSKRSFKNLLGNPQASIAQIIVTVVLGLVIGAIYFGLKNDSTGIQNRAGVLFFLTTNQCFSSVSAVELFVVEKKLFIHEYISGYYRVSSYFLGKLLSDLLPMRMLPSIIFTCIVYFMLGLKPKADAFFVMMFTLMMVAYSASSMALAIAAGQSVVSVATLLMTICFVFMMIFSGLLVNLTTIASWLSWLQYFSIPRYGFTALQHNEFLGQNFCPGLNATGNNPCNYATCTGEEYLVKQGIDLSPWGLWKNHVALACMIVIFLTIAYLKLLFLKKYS", "test": "Substrate activity at BCRP (unknown origin) assessed as efflux ratio of permeability", "assay_type": "ADME", "conditions": "not told"}, "[8]": {"test": "Half life in dog at 0.363 mg/kg, iv and 0.737 mg/kg, po", "assay_type": "ADME, organism-based, Canis lupus familiaris", "conditions": "in vivo"}, "[9]": {"test": "Toxicity in po dosed dog administered as single dose", "assay_type": "organism-based, Canis lupus familiaris", "conditions": "in vivo"}, "Rattus norvegicus [10]": {"system": "Rattus norvegicus", "test": "Toxicity in Wistar Han rat assessed as increase in lymphocyte counts at >= 30 mg/kg/day, po administered for 14 days", "assay_type": "organism-based", "conditions": "in vivo, 336 h"}, "[11]": {"test": "Drug metabolism in rat hepatocytes assessed as monooxidation and glucuronidation", "assay_type": "ADME, cell-based, Hepatocyte"}, "[12]": {"test": "Toxicity in dog assessed as increase in body temperature at 10 mg/kg, po administered as single dose measured up to 3 days post dose", "assay_type": "organism-based, Canis lupus familiaris", "conditions": "in vivo, 72 h"}, "[13]": {"test": "Volume of distribution at steady state in dog at 0.363 mg/kg, iv and 0.737 mg/kg, po", "assay_type": "ADME, organism-based, Canis lupus familiaris", "conditions": "in vivo, read-out: Vdss"}, "[14]": {"test": "Drug metabolism in dog hepatocytes", "assay_type": "ADME, cell-based, Canis lupus familiaris, Hepatocyte"}, "[15]": {"test": "Drug metabolism in rat hepatocytes assessed as glucuronidation in presence of glutathione", "assay_type": "ADME, cell-based, Hepatocyte"}, "Cytochrome P450 2C8": {"biological_target": "T3, Cytochrome P450 2C8 (Homo sapiens, UniProt P10632)", "T3 sequence (P10632 whole entry)": "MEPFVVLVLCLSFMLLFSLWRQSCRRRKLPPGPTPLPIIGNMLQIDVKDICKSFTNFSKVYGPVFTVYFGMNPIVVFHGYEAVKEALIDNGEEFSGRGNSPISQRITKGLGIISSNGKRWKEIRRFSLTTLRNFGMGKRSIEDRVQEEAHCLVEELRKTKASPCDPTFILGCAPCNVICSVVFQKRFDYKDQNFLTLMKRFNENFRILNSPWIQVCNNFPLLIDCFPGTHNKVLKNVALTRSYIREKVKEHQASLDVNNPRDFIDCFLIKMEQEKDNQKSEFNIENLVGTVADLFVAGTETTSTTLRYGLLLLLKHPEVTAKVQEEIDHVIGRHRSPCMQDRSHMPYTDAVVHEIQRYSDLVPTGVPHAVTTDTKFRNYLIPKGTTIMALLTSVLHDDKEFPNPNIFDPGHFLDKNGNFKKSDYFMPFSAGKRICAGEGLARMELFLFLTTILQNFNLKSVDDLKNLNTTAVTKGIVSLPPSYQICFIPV", "test": "Inhibition of CYP2C8 (unknown origin)", "assay_type": "ADME"}, "[16]": {"test": "Drug metabolism in dog liver microsomes", "assay_type": "ADME, Canis lupus familiaris"}, "[17]": {"test": "Plasma clearance in dog at 1 mg/kg, iv and 3 mg/kg, po", "assay_type": "ADME, organism-based, Canis lupus familiaris"}, "[18]": {"test": "Oral bioavailability in dog at 3 mg/kg", "assay_type": "ADME, organism-based, Canis lupus familiaris", "conditions": "in vivo"}, "[19]": {"test": "Volume of distribution at steady state in dog at 1 mg/kg, iv and 3 mg/kg, po", "assay_type": "ADME, organism-based, Canis lupus familiaris", "conditions": "in vivo, read-out: Vdss"}, "[20]": {"test": "Unbound Cmax in Wistar Han rat at 100 mg/kg, po […] measured on day 14", "assay_type": "ADME, organism-based", "conditions": "in vivo"}, "[21]": {"test": "Unbound clearance in dog at 1 mg/kg, iv and 3 mg/kg, po", "assay_type": "ADME, organism-based, Canis lupus familiaris", "conditions": "in vivo"}, "Rattus norvegicus [22]": {"system": "Rattus norvegicus", "test": "Toxicity in Wistar Han rat assessed as centrilobular hepatocellular hypertrophy at 100 mg/kg/day, po administered for 14 days", "assay_type": "organism-based", "conditions": "in vivo, 336 h"}},
  "data": [
    {"smiles": "O=S(=O)(Nc1ccc(C(F)(F)F)nc1)c1ccccc1C(F)(F)F", "values": [
      {"measurement": "efflux ratio", "setting": "P-gp", "result": 1.1},
      {"measurement": "IC50", "setting": "Cytochrome P450 3A4", "result": "> 30", "unit": "µM"},
      {"measurement": "fCmax", "setting": "[1]", "result": 530, "unit": "nM"},
      {"measurement": "Activity", "setting": "[2]", "result": "<= 30 mg kg-1"},
      {"measurement": "dose excreted", "setting": "[3]", "result": "< 1", "unit": "%"},
      {"measurement": "CL free", "setting": "[4]", "result": 1.4, "unit": "mL/min/kg"},
      {"measurement": "Drug metabolism", "setting": "[5]", "result": "Metabolite_Detected"},
      {"measurement": "IC50", "setting": "Cytochrome P450 2D6", "result": "> 30", "unit": "µM"},
      {"measurement": "IC50", "setting": "Cytochrome P450 1A2", "result": "> 30", "unit": "µM"},
      {"measurement": "inhibition at 3 µM", "setting": "CYP2C9", "result": 24, "unit": "%"},
      {"measurement": "Activity", "setting": "[6]", "result": "Toxic"},
      {"measurement": "Drug metabolism", "setting": "[7]", "result": "Metabolite_Detected"},
      {"measurement": "efflux ratio", "setting": "BCRP (ABCG2)", "result": 3.3},
      {"measurement": "half-life", "setting": "[8]", "result": 4.29, "unit": "days"},
      {"measurement": "MTD", "setting": "[9]", "result": 100, "unit": "mg/kg"},
      {"measurement": "Activity", "setting": "Rattus norvegicus [10]", "result": "Non-Toxic"},
      {"measurement": "Drug metabolism", "setting": "[11]", "result": "Metabolite_Detected"},
      {"measurement": "Activity", "setting": "[12]", "result": "Toxic"},
      {"measurement": "Vd", "setting": "[13]", "result": 0.12, "unit": "L/kg"},
      {"measurement": "Drug metabolism", "setting": "[14]", "result": "Metabolite_Notdetected"},
      {"measurement": "Drug metabolism", "setting": "[15]", "result": "Metabolite_Detected"},
      {"measurement": "IC50", "setting": "Cytochrome P450 2C8", "result": "> 30", "unit": "µM"},
      {"measurement": "Drug metabolism", "setting": "[16]", "result": "Metabolite_Notdetected"}
    ]},
    {"smiles": "O=S(=O)(Nc1cncc(C(F)(F)F)c1)c1ccccc1C(F)(F)F", "values": [
      {"measurement": "clearance", "setting": "[17]", "result": 1, "unit": "mL/min/kg"},
      {"measurement": "bioavailability", "setting": "[18]", "result": 145, "unit": "%"},
      {"measurement": "Vd", "setting": "[19]", "result": 0.18, "unit": "L/kg"},
      {"measurement": "fCmax", "setting": "[20]", "result": 2153, "unit": "nM"},
      {"measurement": "CL free", "setting": "[21]", "result": 17.5, "unit": "mL/min/kg"},
      {"measurement": "Activity", "setting": "Rattus norvegicus [22]", "result": "Non-Toxic"}
    ]}
  ]
}
